Data on 22 compounds can be found in PMC6385310 (Scientific Reports, 2019).

Values joined by “and” are separate entries in the source; they are usually repeats but may differ in a detail not shown here. Identical values can stand only once. Like-named read-outs stand apart in the source and are kept apart here. A value given as a limit tells only on which side of the number the result lay.

One series is described as follows: in vitro. The following applies: African green monkey.
For series [1], the system named is VEEV TC-83 virus expressing a luciferase reporter gene (TC-83-luc). Nature of the series: microbe, parasite or virus in culture. It counts as cell-based, Venezuelan equine encephalitis virus.
The next series has as its system VEEV TC83. Nature of the series: microbe, parasite or virus in culture. It counts as cell-based. The note with it: Venezuelan equine encephalitis virus, Vero, 16 h, read-out: Titre reduction (%).
For series [2], the system named is nuclear import of VEEV CP-GFP fusion protein. Nature of the series: cells. The note with it: for inhibition of nuclear import of CP-GFP (FRAP, Fn(rec)max): 200 µM; for inhibition at 200 µM: Venezuelan equine encephalitis virus, HeLa, 2 h, read-out: inhibition of nuclear import of CP-GFP (FRAP, Fn(rec)max). It counts as cell-based.
Series [3] deals with Vero cells. The following applies: cited from earlier work.
The subject of series [4] is VEEV TC-83 virus expressing a luciferase reporter gene (TC-83-luc). The note with it: read-out: anti-VEEV activity EC50; cited from earlier work.
The subject of series [5] is VEEV CP nuclear accumulation. It counts as cell-based, Venezuelan equine encephalitis virus.
For series [6], the system named is Vero cells.
[7] abbreviates: Venezuelan equine encephalitis virus, Vero, read-out: EC50, concentration yielding 50% inhibition of viral replication.
Where [8] appears, read: read-out: EC50, concentration yielding 50% inhibition of viral replication.
Where [9] appears, read: Venezuelan equine encephalitis virus, Vero, read-out: EC50, µM (cells printed ND).

`CN(C)c1cccc([C@H]2C[C@@]3(C)[C@@H](CC[C@@]3(O)C#C[Si](C)(C)C)[C@@H]3CCC4=CC(=O)CCC4=C32)c1` [Compound 54] showed a CC50 in “in vitro” of more than 100 µM. Further, the “SI, selectivity index (CC50/EC50)” value in series [1] is recorded as more than 16.7. Besides, in series [1] (setting [7]), the EC50 is 6 ± 1.1 µM. The inhibition at 10 µM in the series on VEEV TC83 is 94.1 ± 7.1%.

The compound `CN(C)c1ccc([C@H]2C[C@@]3(C)[C@@H](CC[C@@]3(O)C#CC(F)(F)F)[C@@H]3CC[C@@]4(O)CC5(CCC4=C32)OCCO5)cc1` [Compound 8] gave a CC50 in the series “in vitro” of more than 100 µM. Also, in series [1], the “SI, selectivity index (CC50/EC50)” value is 27.6 ± 5.1 >100 >3.6. Also, the EC50 in series [1] (setting [7]) was 27.6 µM.

Turning to `COc1ccc(C#C[C@]2(O)CC[C@H]3[C@@H]4CCC5=CC(=O)CCC5=C4[C@@H](c4ccc(N(C)C)cc4)C[C@@]32C)cc1` [Compound 39], the CC50 in the series “in vitro” was more than 100 µM. In addition, the “inhibition of nuclear import of CP-GFP (FRAP, Fn(rec)max)” value in series [2] was “did not significantly alter CP nuclear import dynamics”. The EC50 was less than 10 µM in series [1] (setting [7]); 5.23 µM and 5.2 µM in series [1] (setting [8]). The inhibition at 10 µM in the series with VEEV TC83 worked out at 47.4 ± 21.4%.

In the case of `CN(C)c1ccc([C@H]2C[C@@]3(C)[C@@H](CC[C@@]3(O)C#Cc3ccccc3)[C@@H]3CCC4=CC(=O)CCC4=C32)cc1` [Compound 38], in “in vitro”, the CC50 was more than 100 µM. In addition, the “SI, selectivity index (CC50/EC50)” value in series [1] is >11.82 and 8.5 ± 1.7 >100 >11.8. Besides, the figures for the EC50 in series [1] (setting [7]) and in series [1] (setting [8]) were 8.46 ± 1.7 µM and 8.5 µM, respectively. In the series with VEEV TC83, the inhibition at 10 µM was determined as 69.7 ± 15.4%.

`CC[Si](C#C[C@]1(O)CC[C@H]2[C@@H]3CCC4=CC(=O)CCC4=C3[C@@H](c3ccc(N(C)C)cc3)C[C@@]21C)(CC)CC` [Compound 34] registered a CC50 in the series “in vitro” of more than 100 µM. The inhibition at 200 µM in series [2] is approximately 30%. Moreover, the inhibition at 10 µM in the series with VEEV TC83 turned out to be 95.8 ± 1.9%.

In turn, `CN(C)c1ccc([C@H]2C[C@@]3(C)[C@@H](CC[C@@]3(O)C#Cc3ccccc3)[C@@H]3CC[C@@]4(O)CC5(CCC4=C32)OCCO5)cc1` [Compound 36] came in with a CC50 in the series “in vitro” of more than 100 µM. Also, the “SI, selectivity index (CC50/EC50)” value in series [1] was 7.2 ± 2.3 >100 >14.0. In addition, the EC50 in series [1] (setting [7]) was determined as 7.2 µM. The inhibition at 10 µM with VEEV TC83 amounted to 53.9 ± 18.8%.

`CN(C)c1ccc([C@H]2C[C@@]3(C)[C@@H](CC[C@@]3(O)C#C[Si](C)(C)C)[C@@H]3CCC4=CC(=O)CCC4=C32)cc1` [Compound 33] registered a CC50 in “in vitro” of more than 100 µM. The inhibition at 200 µM in series [2] was approximately 30%. The EC50 in series [1] (setting [7]) is less than 10 µM; in series [1] (setting [8]) it was 8.49 µM and 8.5 µM.

In the series “in vitro”, `CC(=O)O[C@]1(C(C)=O)CC[C@H]2[C@@H]3CCC4=CC(=O)CCC4=C3[C@@H](c3ccc(N(C)C)cc3)C[C@@]21C` [Compound 21, Ulipristal Acetate, reference compound] had a CC50 of more than 100 µM. Further, the “SI, selectivity index (CC50/EC50)” value in series [1] was more than 8.67. The EC50 was found to be 11.5 µM in series [1] (setting [7]) and 11.5 ± 7 µM in series [1] (setting [8]).

Regarding `COc1ccc(C2C[C@@]3(C)[C@@H](CC[C@@]3(O)C#C[Si](C)(C)C)[C@@H]3CCC4=CC(=O)CCC4=C23)cc1` (stereo partly drawn) [Compound 51], in “in vitro”, the CC50 was more than 100 µM. Besides, the “SI, selectivity index (CC50/EC50)” value in series [1] was more than 4.5. Besides, the EC50 in series [1] (setting [7]) is 22.5 ± 2.4 µM.

Compound `CC[Si](C#C[C@]1(O)CC[C@H]2[C@@H]3CC[C@@]4(O)CC5(CCC4=C3[C@@H](c3ccc(N(C)C)cc3)C[C@@]21C)OCCO5)(CC)CC` [Compound 31] showed a CC50 in the series “in vitro” of more than 100 µM. The “SI, selectivity index (CC50/EC50)” value in series [1] was 4.7 ± 0.5 >100 >21.5. In addition, in series [1] (setting [7]), the EC50 amounted to 4.7 µM. For the same compound, the inhibition at 10 µM in the series with VEEV TC83 came out at 93.9 ± 3.2%.

Compound `CN(C)c1ccc([C@H]2C[C@@]3(C)[C@@H](CC[C@@]3(O)C#C[Si](C)(C)C)[C@@H]3CC[C@@]4(O)CC5(CCC4=C32)OCCO5)cc1` [Compound 30] had a CC50 in “in vitro” of more than 100 µM. Further, the “SI, selectivity index (CC50/EC50)” value in series [1] is more than 9.0. For the same compound, in series [1] (setting [7]), the EC50 was 11.1 ± 1.9 µM. Moreover, the inhibition at 10 µM in the series on VEEV TC83 stood at 88.4 ± 4.8%.

Consider `COc1ccc(C#C[C@]2(O)CC[C@H]3[C@@H]4CC[C@@]5(O)CC6(CCC5=C4[C@@H](c4ccc(N(C)C)cc4)C[C@@]32C)OCCO6)cc1` [Compound 37], for which the CC50 in the series “in vitro” is more than 100 µM. Moreover, the “inhibition of nuclear import of CP-GFP (FRAP, Fn(rec)max)” value in series [2] is listed as “did not significantly alter CP nuclear import dynamics”. Moreover, in the series with VEEV TC83, the inhibition at 10 µM came out at 67.1 ± 12.2%.

As to `CC#C[C@]1(O)CC[C@H]2[C@@H]3CCC4=CC(=O)CCC4=C3[C@@H](c3ccc(NC)cc3)C[C@@]21C` [Compound 6, Desmethyl-mifepristone, reference compound], the “detectable antiviral (anti-VEEV) activity, in words” value (“detectable antiviral” for short) in series [1] was “eliminated any detectable antiviral activity”.

With `CC#C[C@]1(O)CC[C@H]2[C@@H]3CCC4=CC(=O)CCC4=C3[C@@H](c3ccc(N(C)C)cc3)C[C@@]21C` [Compound 1, mifepristone, reference compound], the CC50 in the series with Vero cells [3] was more than 100 µM; in the series “in vitro”, 165 µM. Moreover, the inhibition at 200 µM in series [2] is approximately 30%. Moreover, the EC50 in series [4] was 20 µM; in series [1] (setting [7]), 19.9 ± 2.7 µM; in series [1] (setting [8]), 19.9 ± 2.7 µM. Also, the inhibition at 10 µM with VEEV TC83 was determined as 93.7 ± 19.6%. Also, the “nuclear accumulation of CP in infected cells (Fn/c)” value in series [5] is “reduced the nuclear accumulation of CP”.

Compound `C[C@]12C[C@H](c3ccccc3)C3=C4CCC5(C[C@]4(O)CC[C@H]3[C@@H]1CC[C@@]2(O)C#C[Si](C)(C)C)OCCO5` [Compound 45] had a CC50 in the series “in vitro” of more than 100 µM. Besides, the “SI, selectivity index (CC50/EC50)” value in series [1] was more than 38.7. The EC50 in series [1] (setting [7]) worked out at 2.6 ± 0.4 µM. Besides, in the series on VEEV TC83, the inhibition at 10 µM is 95.4 ± 4.1%.

Regarding `CN(C)c1ccc([C@H]2C[C@@]3(C)[C@@H](CC[C@@]3(O)C#CC(F)(F)F)[C@@H]3CCC4=CC(=O)CCC4=C32)cc1` [Compound 9, Trifluoromethylmifepristone], the CC50 in the series “in vitro” is more than 100 µM. The “detectable antiviral” value in series [1] is recorded as “did not significantly alter the activity of the analogue from 1”. In addition, in series [1] (setting [7]), the EC50 turned out to be 17.8 ± 1.7 µM.

`CC(C)[Si](C#C[C@]1(O)CC[C@H]2[C@@H]3CCC4=CC(=O)CCC4=C3[C@@H](c3ccc(N(C)C)cc3)C[C@@]21C)(C(C)C)C(C)C` [Compound 35] had a CC50 in “in vitro” of more than 100 µM. Besides, the figures for the EC50 in series [1] (setting [7]) and in series [1] (setting [8]) were 16.3 ± 4.7 µM and 16.3 µM, respectively.

Consider `C/C=C\[C@]1(O)CC[C@H]2[C@@H]3CCC4=CC(=O)CCC4=C3[C@@H](c3ccc(N(C)C)cc3)C[C@@]21C` [Compound 7, Aglepristone, reference compound], for which, in series [1] (setting [8]), the EC50 turned out to be 25.3 µM. Further, the CC50 with Vero cells [6] is more than 100 µM.

In turn, `CN(C)c1ccc([C@H]2C[C@@]3(C)[C@@H](CC[C@@]3(O)C#CCO)[C@@H]3CCC4=CC(=O)CCC4=C32)cc1` [Compound 11] came in with a CC50 in “in vitro” of more than 100 µM. In series [1], the “detectable antiviral” value was “abolished any detectable antiviral activity”. In addition, the EC50 in series [1] (setting [9]) is more than 100 µM.

With `CN(C)c1ccc([C@H]2C[C@@]3(C)[C@@H](CC[C@@]3(O)/C=C\CO)[C@@H]3CCC4=CC(=O)CCC4=C32)cc1` [Compound 13, Lilopristone, reference compound], in the series “in vitro”, the CC50 was more than 100 µM. Besides, the “detectable antiviral” value in series [1] is “abolished any detectable antiviral activity”. Moreover, the EC50 in series [1] (setting [9]) is more than 100 µM.

The compound `CC(C)[Si](C#C[C@]1(O)CC[C@H]2[C@@H]3CC[C@@]4(O)CC5(CCC4=C3[C@@H](c3ccc(N(C)C)cc3)C[C@@]21C)OCCO5)(C(C)C)C(C)C` [Compound 32] showed a CC50 in “in vitro” of more than 100 µM. The “SI, selectivity index (CC50/EC50)” value in series [1] was 22.0 ± 6.1 >100 >4.5. For the same compound, in series [1] (setting [7]), the EC50 was determined as 22 µM. Besides, in the series with VEEV TC83, the inhibition at 10 µM was found to be 89.7 ± 4.6%.

`C[C@]12C[C@H](c3ccc(-c4ccccc4)cc3)C3=C4CCC(=O)C=C4CC[C@H]3[C@@H]1CC[C@@]2(O)C#C[Si](C)(C)C` [Compound 53]: the CC50 in “in vitro” is more than 100 µM. The “SI, selectivity index (CC50/EC50)” value in series [1] is more than 20.1. The EC50 in series [1] (setting [7]) came out at 5 ± 0.7 µM. The inhibition at 10 µM in the series on VEEV TC83 is 91.1 ± 5.4%.
